Measurements published in patent US20150291598A1 (NOVARTIS AG, priority 2012, published 2015).

tested on: P. falciparum (NF54 or 3D7 strain); experiment: Assay for P. falciparum proliferation in infected human blood cells (SYBR Green); type: cell-based, Plasmodium falciparum; conditions: Plasmodium falciparum, Erythrocyte, 72 h, NF54 or 3D7 infected human erythrocytes, 72 hours; read-out: EC50 (nM), inhibitory efficacy in delaying P. falciparum proliferation in infected human blood cells
Experimental: Assay for P. falciparum Proliferation in Infected Human Blood Cells
Compounds of the invention can be assayed to measure their capacity to inhibit proliferation of P. falciparum parasitemia in infected red blood cells. This parasite proliferation assay measures the increase in parasite DNA content using a DNA intercalating dye, SYBR Green® (INVITROGEN®) which has a high affinity for double stranded DNA.
NF54 or 3D7 P. falciparum strain is grown in complete culturing media until parasitemia reaches 3% to 8% with O+ human erythrocytes. […] 20 μl of screening media is dispensed into 384 well assay plates. 50 nl of compounds of the invention (in DMSO), including antimalarial controls (mefloquine, pyrimethamine and artemisinin), are then transferred into the assay plates, as well as DMSO alone to serve as a negative control for inhibition. Then 30 μl of a suspension of a NF54 or 3D7 P. falciparum infected erythrocytes in screening media is dispensed into the assay plates such that the final hematocrit is 2.5% with a final parasitemia of 0.3%. The plates are placed in a 37° C. incubator for 72 hours in a low oxygen environment containing 93% N2, 4% CO2, and 3% O2 gas mixture. 10 μl of lysis buffer (saponin, triton-X, EDTA) containing a 10× solution of SYBR Green I® in RPMI media is dispensed into the plates. The plates are lidded and kept at room temperature overnight for the lysis of the infected red blood cells. The fluorescence intensity is measured (excitation […], emission 530 nm) using the Envision™ system (Perkin Elmer).

Compound	EC50
CN(Cc1cn2c(-c3ccc(-c4nnc(N)s4)cc3)cnc2cn1)c1ccc(Cl)nc1 [Compound 28, -({3-[4-(5-amino-1,3,4-thiadiazol-2-yl)phenyl]imidazo[1,2-a]pyrazin-6-yl}methyl)-6-chloro-N-methylpyridin-3-amine]	13 nM
CN(C(=O)c1cn2c(-c3ncc(F)cc3F)cnc2cn1)c1ccc(C#N)cc1 [Compound 29, N-(4-cyanophenyl)-3-(3,5-difluoropyridin-2-yl)-N-methylimidazo[1,2-a]pyrazine-6-carboxamide]	2040 nM
CN(C(=O)c1cn2c(-c3ccc(C(F)(F)F)cc3Cl)cnc2cn1)c1ccc(C#N)cc1 [Compound 31, 3-[2-chloro-4-(trifluoromethyl)phenyl]-N-(4-cyanophenyl)-N-methylimidazo[1,2-a]pyrazine-6-carboxamide]	1200 nM
CN(C(=O)c1cn2c(-c3ccc(C(F)(F)F)cc3)cnc2cn1)c1cccc(Cl)c1 [Compound 35, N-(3-chlorophenyl)-N-methyl-3-[4-(trifluoromethyl)phenyl]imidazo[1,2-a]pyrazine-6-carboxamide]	462 nM
CN(C(=O)c1cn2c(-c3ccc(C(F)(F)F)cc3)cnc2cn1)c1ccccc1OC(F)(F)F [Compound 40, N-methyl-N-[2-(trifluoromethoxy)phenyl]-3-[4-(trifluoromethyl)phenyl]imidazo[1,2-a]pyrazine-6-carboxamide]	3320 nM
COc1ccc(-c2cnc3cnc(C(=O)N(C)c4ccc(Cl)cc4Cl)cn23)cc1 [Compound 41, N-(2,4-dichlorophenyl)-3-(4-methoxyphenyl)-N-methylimidazo[1,2-a]pyrazine-6-carboxamide]	97 nM
COc1ccc(-c2cnc3cnc(C(=O)N(C)c4ccc(C#N)cc4)cn23)cc1Cl [Compound 42, -(3-chloro-4-methoxyphenyl)-N-(4-cyanophenyl)-N-methylimidazo[1,2-a]pyrazine-6-carboxamide]	333 nM
COc1cccc(-c2cnc3cnc(C(=O)N(C)c4ccc(C#N)cc4)cn23)c1 [Compound 48, N-(4-cyanophenyl)-3-(3-methoxyphenyl)-N-methylimidazo[1,2-a]pyrazine-6-carboxamide]	5100 nM
CN(C(=O)c1cn2c(-c3ccc(C(F)(F)F)cc3)cnc2cn1)c1ccc(Cl)cc1Cl [Compound 49, N-(2,4-dichlorophenyl)-N-methyl-3-[4-(trifluoromethyl)phenyl]imidazo[1,2-a]pyrazine-6-carboxamide]	314 nM
CN(C(=O)c1cn2c(-c3ccc(C(F)(F)F)cc3)cnc2cn1)c1ccc(-c2cnn(C)c2)cc1 [Compound 51, N-methyl-N-[4-(1-methyl-1H-pyrazol-4-yl)phenyl]-3-[4-(trifluoromethyl)phenyl]imidazo[1,2-a]pyrazine-6-carboxamide]	> 9720 nM
CN(C(=O)c1cn2c(-c3ccc(C(F)(F)F)cc3)cnc2cn1)c1ccc(F)c(Br)c1 [Compound 52, N-(3-bromo-4-fluorophenyl)-N-methyl-3-[4-(trifluoromethyl)phenyl]imidazo[1,2-a]pyrazine-6-carboxamide]	187 nM
CN(C(=O)c1cn2c(-c3ccc4c(cnn4C)c3)cnc2cn1)c1ccc(F)c(F)c1 [Compound 53, N-(3,4-difluorophenyl)-N-methyl-3-(1-methyl-1H-indazol-5-yl)imidazo[1,2-a]pyrazine-6-carboxamide]	12 nM
CN(C(=O)c1cn2c(-c3ccc(C(F)(F)F)cc3)cnc2cn1)c1cccnc1F [Compound 54, N-(2-fluoropyridin-3-yl)-N-methyl-3-[4-(trifluoromethyl)phenyl]imidazo[1,2-a]pyrazine-6-carboxamide]	> 9280 nM
CN(C(=O)c1cn2c(-c3ccc(C(F)F)cc3)cnc2cn1)c1ccc(C#N)cc1 [Compound 57, N-(4-cyanophenyl)-3-[4-(difluoromethyl)phenyl]-N-methylimidazo[1,2-a]pyrazine-6-carboxamide]	70 nM

Now from value to molecule:

EC50	Compound
8330 nM	Cc1cc(Cl)ccc1-c1cnc2cnc(C(=O)N(C)c3ccc(C#N)cc3)cn12 [Compound 26, 3-(4-chloro-2-methylphenyl)-N-(4-cyanophenyl)-N-methylimidazo[1,2-a]pyrazine-6-carboxamide]
> 10000 nM	CN(C(=O)c1cn2c(-c3ccnc(Cl)c3)cnc2cn1)c1ccc(C#N)cc1 [Compound 27, 3-(2-chloropyridin-4-yl)-N-(4-cyanophenyl)-N-methylimidazo[1,2-a]pyrazine-6-carboxamide]
2510 nM	COc1ccc(-c2cnc3cnc(C(=O)N(C)c4ccc(C#N)cc4)cn23)cc1C [Compound 30, N-(4-cyanophenyl)-3-(4-methoxy-3-methylphenyl)-N-methylimidazo[1,2-a]pyrazine-6-carboxamide]
135 nM	CN(C(=O)c1cn2c(-c3ccc(C(F)(F)F)cc3)cnc2cn1)c1ccc(F)c(Cl)c1 [Compound 32, N-(3-chloro-4-fluorophenyl)-N-methyl-3-[4-(trifluoromethyl)phenyl]imidazo[1,2-a]pyrazine-6-carboxamide]
4710 nM	CC(=O)c1cnc2cnc(C(=O)N(C)c3ccc(Cl)nc3)cn12 [Compound 33, 3-acetyl-N-(6-chloropyridin-3-yl)-N-methylimidazo[1,2-a]pyrazine-6-carboxamide]
329 nM	CN(C)c1ccc(-c2cnc3cnc(CN(C)c4ccc(F)cc4)cn23)cc1 [Compound 36, 4-(6-{[(4-fluorophenyl)(methyl)amino]methyl}imidazo[1,2-a]pyrazin-3-yl)-N,N-dimethylaniline]
640 nM	CN(C)c1ccc(-c2cnc3cnc(CN(C)c4ccc(Cl)cc4)cn23)cc1 [Compound 37, 4-(6-{[(4-chlorophenyl)(methyl)amino]methyl}imidazo[1,2-a]pyrazin-3-yl)-N,N-dimethylaniline]
1080 nM	CCc1ccc(N(C)C(=O)c2cn3c(-c4ccc(C(F)(F)F)cc4)cnc3cn2)nc1 [Compound 39, N-(5-ethylpyridin-2-yl)-N-methyl-3-[4-(trifluoromethyl)phenyl]imidazo[1,2-a]pyrazine-6-carboxamide]
> 10000 nM	CN(C(=O)c1cn2c(-c3ccc(C(F)(F)F)cc3)cnc2cn1)c1ccc(Oc2ccccc2)cc1 [Compound 43, N-methyl-N-(4-phenoxyphenyl)-3-[4-(trifluoromethyl)phenyl]imidazo[1,2-a]pyrazine-6-carboxamide]
206 nM	CN(Cc1cn2c(-c3ccc(Cl)cc3)cnc2cn1)c1ccc(Cl)cc1 [Compound 44, 4-chloro-N-{[3-(4-chlorophenyl)imidazo[1,2-a]pyrazin-6-yl]methyl}-N-methylaniline]
178 nM	Cc1ccc(N(C)Cc2cn3c(-c4ccc5c(cnn5C)c4)cnc3cn2)nc1 [Compound 45, N,5-dimethyl-N-{[3-(1-methyl-1H-indazol-5-yl)imidazo[1,2-a]pyrazin-6-yl]methyl}pyridin-2-amine]
> 10000 nM	CN(C(=O)c1cn2c(-c3cccc(-c4cn[nH]c4)c3)cnc2cn1)c1ccc(C#N)cc1 [Compound 46, N-(4-cyanophenyl)-N-methyl-3-[3-(1H-pyrazol-4-yl)phenyl]imidazo[1,2-a]pyrazine-6-carboxamide]
1240 nM	Cc1ccc(N(C)Cc2cn3c(-c4ccc(-c5ccn[nH]5)cc4)cnc3cn2)nc1 [Compound 47, N,5-dimethyl-N-({3-[4-(1H-pyrazol-5-yl)phenyl]imidazo[1,2-a]pyrazin-6-yl}methyl)pyridin-2-amine]
828 nM	CN(C(=O)c1cn2c(-c3ccc(C(F)(F)F)cc3)cnc2cn1)c1ccc(OC(F)F)cc1 [Compound 50, N-[4-(difluoromethoxy)phenyl]-N-methyl-3-[4-(trifluoromethyl)phenyl]imidazo[1,2-a]pyrazine-6-carboxamide]
160 nM	CN(C(=O)c1cn2c(-c3ccc(C(F)(F)F)cc3)cnc2cn1)c1ccc(Cl)c(Cl)c1 [Compound 55, N-(3,4-dichlorophenyl)-N-methyl-3-[4-(trifluoromethyl)phenyl]imidazo[1,2-a]pyrazine-6-carboxamide]
491 nM	Cc1cc(N(C)C(=O)c2cn3c(-c4ccc(C(F)(F)F)cc4)cnc3cn2)ccc1Cl [Compound 56, N-(4-chloro-3-methylphenyl)-N-methyl-3-[4-(trifluoromethyl)phenyl]imidazo[1,2-a]pyrazine-6-carboxamide]
1140 nM	CN(C(=O)c1cn2c(-c3ccc(C(F)(F)F)cc3)cnc2cn1)c1ccc(Br)nc1 [Compound 58, N-(6-bromopyridin-3-yl)-N-methyl-3-[4-(trifluoromethyl)phenyl]imidazo[1,2-a]pyrazine-6-carboxamide]
35 nM	COc1cc(Cl)ccc1N(C)C(=O)c1cn2c(-c3ccc(C(F)(F)F)cc3)cnc2cn1 [Compound 59, N-(4-chloro-2-methoxyphenyl)-N-methyl-3-[4-(trifluoromethyl)phenyl]imidazo[1,2-a]pyrazine-6-carboxamide]
2630 nM	CN(C(=O)c1cn2c(-c3ccc(Cl)c(C(F)(F)F)c3)cnc2cn1)c1ccc(C#N)cc1 [Compound 60, 3-[4-chloro-3-(trifluoromethyl)phenyl]-N-(4-cyanophenyl)-N-methylimidazo[1,2-a]pyrazine-6-carboxamide]

same assay, conditions: Plasmodium falciparum, Erythrocyte, infected human red blood cells; read-out: EC50, P. falciparum Proliferation Assay

EC50	Compound
< 50 nM	Cc1ccc(N(C)Cc2cn3c(-c4ccc(-c5ccn[nH]5)cc4)cnc3cn2)nc1 [Compound 47, N,5-dimethyl-N-({3-[4-(1H-pyrazol-5-yl)phenyl]imidazo[1,2-a]pyrazin-6-yl}methyl)pyridin-2-amine]
